Data set [1] concerns Escherichia coli (ATCC 35218). The experiment in a line: broth microdilution MIC (CLSI M07-A9), resazurin. It counts as cell-based. The following applies: ATCC35218, 24 h, read-out: MIC Ec-1. The procedure:
(§1) Microbiological studies were performed according to following guides: CLSI reference […]-A9 broth microdilution method[49] for bacterial strains and EUCAST definitive (EDef 7.1) method[50] for Candida species. Synthesized compounds were tested for their in vitro growth inhibitory activity against Staphylococcus aureus (ATCC 25923), Enterococcus faecalis (ATCC 29212), Listeria monocytogenes (ATCC 1911), Klebsiella pneumoniae (NCTC 9633), Escherichia coli (ATCC 35218), E. coli (ATCC 25922) Candida albicans (ATCC 24433) Candida krusei (ATCC 6258) and Candida parapsilosis (ATCC 22019). Chloramphenicol and ketoconazole were used as control drugs. The cultures were obtained from the Mueller-Hinton broth (Difco) for the bacterial strains after overnight incubation at 37 °C. The yeasts were maintained in Roswell Park Memorial Institute (RPMI) after overnight incubation at 37 °C. […] Testing was carried out in Mueller-Hinton broth and RPMI at pH =7, and the two-fold serial dilutions technique was applied. The last well on the microplates containing only inoculated broth was kept as controls and the last well with no growth of microorganism was recorded to represent the minimum inhibitory concentration (MIC) expressed in μg/mL. For both the antibacterial and antifungal assays, the compounds were dissolved in DMSO. […] The completed plates were incubated for 24 h. At the end of the incubation, resazurin (20 μg/mL) was added into each well and plates were incubated for 2 h. MIC values were determined using a microplate reader at […]. Synthesized compounds (6a-6m) were evaluated for antimicrobial activity against various microorganisms such as Staphylococcus aureus (ATCC 25923), Enterococcus faecalis (ATCC 29212), Listeria monocytogenes (ATCC 1911), Klebsiella pneumoniae (NCTC 9633), Escherichia coli (ATCC 35218), E. coli (ATCC 25922)Candida albicans (ATCC 24433) Candida krusei (ATCC 6258) and Candida parapsilosis (ATCC 22019). […] Chloramphenicol and ketoconazole were used as standard drugs in the activity test. […] Besides, the compounds 6d, 6h, 6l and 6m indicated stronger antibacterial activity than the other compounds in the series.

Data set [2] deals with Enterococcus faecalis (ATCC 29212). The experiment in a line: broth microdilution MIC (CLSI M07-A9), resazurin. The conditions noted are these: ATCC29212, 24 h. It counts as cell-based. As to the method:
as §1

The test system of data set [3] is Klebsiella pneumoniae (NCTC 9633). Nature of the data set: broth microdilution MIC (CLSI M07-A9), resazurin. The format is cell-based. The following applies: 24 h. As to the method:
as §1
(In general: Dilution methods test growth across graded concentrations, often in twofold steps.)

The subject of data set [4] is Listeria monocytogenes (ATCC 1911). Nature of the data set: broth microdilution MIC (CLSI M07-A9), resazurin. It counts as cell-based. The following applies: ATCC1911, 24 h. As to the method:
as §1

The test system of data set [5] is Escherichia coli (ATCC 25922). Nature of the data set: broth microdilution MIC (CLSI M07-A9), resazurin. The format is cell-based. The conditions noted are these: ATCC25922, 24 h, read-out: MIC Ec-2. As to the method: as §1
Data set [6] has as its system Staphylococcus aureus (ATCC 25923). Nature of the data set: broth microdilution MIC (CLSI M07-A9), resazurin. The format is cell-based. The conditions noted are these: ATCC25923, 24 h. The procedure: as §1
Data set [7] relates to Salmonella typhimurium TA100 (base-pair substitutions). The experiment in a line: Ames MPF mutagenicity assay, TA100. The format is cell-based. The following applies: for mutagenicity classification against TA100: presence or absence of metabolic activation (S9). As to the method:
(§2) Salmonella typhimurium strains, TA98 (frameshift mutations) and TA100 (base-pair substitutions), are used in this assay. Concentration range of the compounds was between […] and 5000 µg/mL according to the previous guidelines. Compounds were prepared in six different concentrations (5, 2.5, 1.25, 0.625, 0.3125 and 0.156 mg/mL) in DMSO. Mutagenic potential was determined in absence and presence of Aroclor™-1254 induced male Sprague–Dawley rat liver microsomal enzyme (S9) mix (Xenometrix AG, Switzerland). Positive controls without S9 mix were 2-Nitrofluorene (2 µg/mL) and 4-nitroquinoline N-oxide (0.1 µg/mL) whereas 1 and 2.5 µg/mL of 2-aminoanthracene solutions were used as positive controls with S9 against TA 98 and TA100, respectively. Solvent control was prepared with 4% DMSO. At the end of the experiment, revertant bacteria dropped the pH of solution and indicator medium color was changed to yellow. Yellow wells were counted as positive and compared with the negative control. Fold induction over the negative control and fold induction over the baseline were calculated. Fold induction over the negative control is the ratio of the mean number of positive wells for the dose concentration divided by the mean number of positive wells for the zero dose (negative) control. Fold induction over the baseline is the ratio of the mean number of positive wells for the dose concentration divided by zero dose baseline. The zero dose baseline is obtained by adding one standard deviation to the mean number of positive wells of the zero dose control. Mutagenicity was determined according to the criteria from previous studies[52]^,[56]. For a value ≤3 and significant increases between two and three-fold the baselines were classified as a weak mutagen, and increases ≥ three-fold the baselines were classified as a mutagen. […] As a rule, at least two adjacent doses with significant increases or a significant increase at the highest dose level should be observed for a mutagenic compound. All doses were compared according to Student’s t-test at p < .05 for statistical significance.
(§3) Ames assay was performed to investigate the genotoxicity of compounds 6h and 6l.
Background: The Ames test uses bacterial strains that need an amino acid and regain growth without it when mutated back.

The test system of data set [8] is TA100 (base-pair substitutions). Nature of the data set: Ames MPF mutagenicity assay, TA100. It counts as cell-based, Salmonella typhimurium. The following applies: Salmonella typhimurium; each concentration, with and without S9; read-out: Fold inductions over baseline, TA 100. As to the method:
as §2, §3

Converted amounts (≈) assume the structure as drawn. Marks after values point to notes of the source that are not given here.

As a reminder, the MIC is the lowest concentration that inhibits growth of the organism. Turning to `COc1ccc2sc(SCc3ccc(C(C)C(=O)O)cc3)nc2c1` (centres unmarked) [Compound 6h, 2-(4-(((5-Methoxybenzo[d]thiazol-2-yl)thio)methyl)phenyl)propanoic acid], the MIC in data set [1] amounted to 6.25 µg/mL (≈ 17.4 µM); in data set [2], 12.5 µg/mL (≈ 34.8 µM); in data set [4], 6.25 µg/mL (≈ 17.4 µM); in data set [5] it was 12.5 µg/mL (≈ 34.8 µM); in data set [6] it was 12.5 µg/mL (≈ 34.8 µM). Further, the “MIC Kp” value in data set [3] turned out to be 6.25 µg/mL (≈ 17.4 µM). Further, the “Revertants fold increase (over baseline) TA 100 S9+” value came out at 0.60 in data set [7] (0.156 mg/mL); 0.50 in data set [7] (0.3125 mg/mL); 0.20 in data set [7] (0.625 mg/mL); 0.25 in data set [7] (1.25 mg/mL); 0.25 in data set [7] (2.5 mg/mL); 0.20 in data set [7] (5 mg/mL). The “Revertants fold increase (over baseline) TA 100 S9−” value in data set [7] (0.3125 mg/mL) worked out at 0.52; in data set [7] (0.625 mg/mL), 0.70; in data set [7] (1.25 mg/mL), 0.17; in data set [7] (2.5 mg/mL), 1.05; in data set [7] (5 mg/mL) it was 0.87. The “mutagenicity classification against TA100” value in data set [7] was “did not show any mutagenicity”.
Take `COc1ccc2[nH]c(SCc3ccc(C(C)C(=O)O)cc3)nc2c1` (centres unmarked) [Compound 6l, 2-(4-(((5-Methoxy-1H-benzo[d]imidazol-2-yl)thio)methyl)phenyl)propanoic acid]: the minimal inhibitory concentration (MIC) in data set [1] turned out to be 6.25 µg/mL (≈ 18.3 µM); in data set [2], 12.5 µg/mL (≈ 36.5 µM); in data set [4] it was 6.25 µg/mL (≈ 18.3 µM); in data set [5], 12.5 µg/mL (≈ 36.5 µM); in data set [6] it was 12.5 µg/mL (≈ 36.5 µM). Moreover, the “MIC Kp” value in data set [3] is 6.25 µg/mL (≈ 18.3 µM). Moreover, the fold induction in data set [8] is below 1.5. The “Revertants fold increase (over baseline) TA 100 S9+” value is reported as 0.74 in data set [7] (0.156 mg/mL); 0.52 in data set [7] (0.3125 mg/mL); 0.52 in data set [7] (0.625 mg/mL); 0.00^a in data set [7] (1.25 mg/mL); 0.00^a in data set [7] (2.5 mg/mL); 0.00^a in data set [7] (5 mg/mL). The “Revertants fold increase (over baseline) TA 100 S9−” value in data set [7] (0.156 mg/mL) is 0.53a; in data set [7] (0.3125 mg/mL) it was 0.27^a; in data set [7] (0.625 mg/mL), 0.13^a; in data set [7] (1.25 mg/mL) it was 0.13^a; in data set [7] (2.5 mg/mL), 0.20^a; in data set [7] (5 mg/mL) it was 0.00^a. The “mutagenicity classification against TA100” value in data set [7] is given as “non-mutagenic”.
